Results published in ChEMBL document CHEMBL3885861, “Open TG-GATES”.

Species on record: Rattus norvegicus
Assay: Open TG-GATES - Regimen: Daily Repeat
Type: toxicity, organism-based, Sprague-Dawley
Set-up: regimen Daily Repeat, gender Male, age 6 weeks
Details: in vivo, po, 100 mg/kg, route gavage, dose level High; for APTT / Bas / Eos / Fbg / Hb / Ht / Lym / MCH / MCHC / MCV / Mono / Neu / PT / Plat / RBC / Ret / WBC: tissue Blood; for KIDNEY_L / KIDNEY_R / KIDNEY_TOTAL: tissue Kidney; for LIVER: tissue Liver; for A/G / ALP / ALT / AST / BUN / CRE / Ca / Cl / DBIL / GLC / IP / K / LDH / Na / PL / RALB / TBIL / TC / TG / TP / gamma-GTP: tissue Plasma

Compound: CCC1(c2ccccc2)C(=O)NC(=O)NC1=O [PHENOBARBITAL]
- TERMINAL_BW (72 h, time 3 day): 223.9 g
- APTT (72 h, time 3 day): 15.7 s
- Bas (72 h, time 3 day): 0%
- Eos (72 h, time 3 day): 0.4%
- Fbg (72 h, time 3 day): 214.6 mg/dL
- Hb (72 h, time 3 day): 13.6 g/dL
- Ht (72 h, time 3 day): 40.7%
- Lym (72 h, time 3 day): 82.8%
- MCH (72 h, time 3 day): 21.9 pg
- MCHC (72 h, time 3 day): 33.3%
- MCV (72 h, time 3 day): 65.9 fL
- Mono (72 h, time 3 day): 6.8%
- Neu (72 h, time 3 day): 10%
- PT (72 h, time 3 day): 11.4 s
- Plat (72 h, time 3 day): 115.9 x10_4/uL
- RBC (72 h, time 3 day): 617.6 x10_4/ul
- Ret (72 h, time 3 day): 6.6%
- WBC (72 h, time 3 day): 159.6 x10_2/uL
- KIDNEY_L (72 h, time 3 day): 1 g
- KIDNEY_R (72 h, time 3 day): 1 g
- KIDNEY_TOTAL (72 h, time 3 day): 2 g
- LIVER (72 h, time 3 day): 14.1 g
- A/G (72 h, time 3 day): 1.6
- ALP (72 h, time 3 day): 945.6 IU/L
- ALT (72 h, time 3 day): 37 IU/L
- AST (72 h, time 3 day): 60.6 IU/L
- BUN (72 h, time 3 day): 14.2 mg/dL
- CRE (72 h, time 3 day): 0.5 mg/dL
- Ca (72 h, time 3 day): 10.8 mg/dL
- Cl (72 h, time 3 day): 104.6 meq/L
- DBIL (72 h, time 3 day): 0.028 mg/dL
- GLC (72 h, time 3 day): 188.6 mg/dL
- IP (72 h, time 3 day): 8 mg/dL
- K (72 h, time 3 day): 5.1 meq/L
- LDH (72 h, time 3 day): 112.4 IU/L
- Na (72 h, time 3 day): 137.4 meq/L
- PL (72 h, time 3 day): 157.2 mg/dL
- RALB (72 h, time 3 day): 3.6 g/dL
- TBIL (72 h, time 3 day): 0.4 mg/dL
- TC (72 h, time 3 day): 82.2 mg/dL
- TG (72 h, time 3 day): 118.6 mg/dL
- TP (72 h, time 3 day): 5.9 g/dL
- gamma-GTP (72 h, time 3 day): 1 IU/L
- TERMINAL_BW ([…], time 7 day): 257.9 g
- TERMINAL_BW ([…], time 14 day): 304.3 g
- TERMINAL_BW ([…], time 28 day): 378.9 g
- APTT ([…], time 7 day): 16.7 s
- Bas ([…], time 7 day): 0%
- Eos ([…], time 7 day): 1%
- Fbg ([…], time 7 day): 241.6 mg/dL
- Hb ([…], time 7 day): 13.8 g/dL
- Ht ([…], time 7 day): 41.4%
- Lym ([…], time 7 day): 78.8%
- MCH ([…], time 7 day): 22 pg
- MCHC ([…], time 7 day): 33.4%
- MCV ([…], time 7 day): 66 fL
- Mono ([…], time 7 day): 7.4%
- Neu ([…], time 7 day): 13%
- PT ([…], time 7 day): 11.5 s
- Plat ([…], time 7 day): 116.8 x10_4/uL
- RBC ([…], time 7 day): 629.6 x10_4/ul
- Ret ([…], time 7 day): 7.5%
- WBC ([…], time 7 day): 104.3 x10_2/uL
- APTT ([…], time 14 day): 17.5 s
- Bas ([…], time 14 day): 0%
- Eos ([…], time 14 day): 0%
- Fbg ([…], time 14 day): 228.6 mg/dL
- Hb ([…], time 14 day): 14.7 g/dL
- Ht ([…], time 14 day): 43.9%
- Lym ([…], time 14 day): 86%
- MCH ([…], time 14 day): 20.7 pg
- MCHC ([…], time 14 day): 33.4%
- MCV ([…], time 14 day): 61.9 fL
- Mono ([…], time 14 day): 4.2%
- Neu ([…], time 14 day): 9.4%
- PT ([…], time 14 day): 11.5 s
- Plat ([…], time 14 day): 115.5 x10_4/uL
- RBC ([…], time 14 day): 709.4 x10_4/ul
- Ret ([…], time 14 day): 5%
- WBC ([…], time 14 day): 166 x10_2/uL
- APTT ([…], time 28 day): 19.1 s
- Bas ([…], time 28 day): 0%
- Eos ([…], time 28 day): 0.4%
- Fbg ([…], time 28 day): 226.8 mg/dL
- Hb ([…], time 28 day): 15.3 g/dL
- Ht ([…], time 28 day): 46.1%
- Lym ([…], time 28 day): 87.8%
- MCH ([…], time 28 day): 19.8 pg
- MCHC ([…], time 28 day): 33.2%
- MCV ([…], time 28 day): 59.4 fL
- Mono ([…], time 28 day): 2.2%
- Neu ([…], time 28 day): 9.6%
- PT ([…], time 28 day): 12.4 s
- Plat ([…], time 28 day): 105.1 x10_4/uL
- RBC ([…], time 28 day): 775.6 x10_4/ul
- Ret ([…], time 28 day): 3%
- WBC ([…], time 28 day): 170.6 x10_2/uL
- KIDNEY_L ([…], time 7 day): 1.1 g
- KIDNEY_R ([…], time 7 day): 1.1 g
- KIDNEY_TOTAL ([…], time 7 day): 2.1 g
- KIDNEY_L ([…], time 14 day): 1.2 g
- KIDNEY_R ([…], time 14 day): 1.2 g
- KIDNEY_TOTAL ([…], time 14 day): 2.4 g
- KIDNEY_L ([…], time 28 day): 1.4 g
- KIDNEY_R ([…], time 28 day): 1.4 g
- KIDNEY_TOTAL ([…], time 28 day): 2.8 g
- LIVER ([…], time 7 day): 17.1 g
- LIVER ([…], time 14 day): 18.1 g
- LIVER ([…], time 28 day): 20.8 g
- A/G ([…], time 7 day): 1.5
- ALP ([…], time 7 day): 717.2 IU/L
- ALT ([…], time 7 day): 32.6 IU/L
- AST ([…], time 7 day): 58.8 IU/L
- BUN ([…], time 7 day): 18 mg/dL
- CRE ([…], time 7 day): 0.6 mg/dL
- Ca ([…], time 7 day): 11 mg/dL
- Cl ([…], time 7 day): 106 meq/L
- DBIL ([…], time 7 day): 0.054 mg/dL
- GLC ([…], time 7 day): 199 mg/dL
- IP ([…], time 7 day): 8.1 mg/dL
- K ([…], time 7 day): 4.6 meq/L
- LDH ([…], time 7 day): 145 IU/L
- Na ([…], time 7 day): 140.4 meq/L
- PL ([…], time 7 day): 160.2 mg/dL
- RALB ([…], time 7 day): 3.8 g/dL
- TBIL ([…], time 7 day): 0.4 mg/dL
- TC ([…], time 7 day): 88.4 mg/dL
- TG ([…], time 7 day): 71.6 mg/dL
- TP ([…], time 7 day): 6.2 g/dL
- gamma-GTP ([…], time 7 day): 1.6 IU/L
- A/G ([…], time 14 day): 1.4
- ALP ([…], time 14 day): 757.4 IU/L
- ALT ([…], time 14 day): 32 IU/L
- AST ([…], time 14 day): 65.4 IU/L
- BUN ([…], time 14 day): 19.4 mg/dL
- CRE ([…], time 14 day): 0.6 mg/dL
- Ca ([…], time 14 day): 10.7 mg/dL
- Cl ([…], time 14 day): 107.2 meq/L
- DBIL ([…], time 14 day): 0.004 mg/dL
- GLC ([…], time 14 day): 180 mg/dL
- IP ([…], time 14 day): 8.4 mg/dL
- K ([…], time 14 day): 4.2 meq/L
- LDH ([…], time 14 day): 151.2 IU/L
- Na ([…], time 14 day): 141.4 meq/L
- PL ([…], time 14 day): 156 mg/dL
- RALB ([…], time 14 day): 3.9 g/dL
- TBIL ([…], time 14 day): 0.4 mg/dL
- TC ([…], time 14 day): 91.4 mg/dL
- TG ([…], time 14 day): 60.4 mg/dL
- TP ([…], time 14 day): 6.5 g/dL
- gamma-GTP ([…], time 14 day): 1.4 IU/L
- A/G ([…], time 28 day): 1.4
- ALP ([…], time 28 day): 536 IU/L
- ALT ([…], time 28 day): 34.6 IU/L
- AST ([…], time 28 day): 64.6 IU/L
- BUN ([…], time 28 day): 21.2 mg/dL
- CRE ([…], time 28 day): 0.4 mg/dL
- Ca ([…], time 28 day): 10.7 mg/dL
- Cl ([…], time 28 day): 106.2 meq/L
- DBIL ([…], time 28 day): 0.014 mg/dL
- GLC ([…], time 28 day): 180 mg/dL
- IP ([…], time 28 day): 7.7 mg/dL
- K ([…], time 28 day): 4.9 meq/L
- LDH ([…], time 28 day): 138.8 IU/L
- Na ([…], time 28 day): 141.6 meq/L
- PL ([…], time 28 day): 144.8 mg/dL
- RALB ([…], time 28 day): 4 g/dL
- TBIL ([…], time 28 day): 0.4 mg/dL
- TC ([…], time 28 day): 79.6 mg/dL
- TG ([…], time 28 day): 76.2 mg/dL
- TP ([…], time 28 day): 6.8 g/dL
- gamma-GTP ([…], time 28 day): 2 IU/L
